Measured values: patent publication US20190343908A1, “Therapeutic Combination for the Treatment of Cancer” (Nerium Biotechnology Inc., priority 2011, published 2019)

What was measured:
[1] = test system: A375 melanoma cancer cell line; experiment: Crystal Violet viability assay, A375; type: cell-based, human; settings: for ABSORBANCE: 0.1 μg/mL cisplatin; for Average absorbance, CVE 24 h / Average absorbance, CVE 48 h / Average absorbance, CVE 72 h: A375 Run 1
Source text: (§1) Three different viability assays were chosen to complement each other and yielded results dependent on concentration and cell line: the Methyl Tetrazolium dye assay, the Sulforhodamine B fluorescent dye assay, and the Crystal Violet dye assay.
The Sulforhodamine B and Crystal Violet assays provide information about protein and were used to complement the Methyl-Tetrazolium dye assay. […] It is used for the quantification of cellular proteins of cultured cells. The assay using Crystal Violet, a dye that binds electrostatically to proteins and stains DNA, provides a reliable, simple assay for measuring viability of cells.
(§2) The Methyl Tetrazolium, Sulforhodamine B, and Crystal Violet assays were used to assess cell viabilities. The incubation times were 24 hours, 48 hours, and 72 hours. The Nerium oleander extract Anvirzel™ (a hot water extract of oleander obtained from Salud Integral, Honduras) was tested in concentrations ranging from 0.01 ng/mL to 10 ng/mL.
(§3) Cells were detached by trypsinization (Trypsin-0.25% EDTA, Invitrogen, 25200-072) during the logarithmic phase of culture growth and plated in 96-well plates (18.000 cells/well) (Corning, Costar 359) in a final volume of 200 μl of medium per well. […] The absorbance was measured after 24 hours, 48 hours, and 72 hours of incubation.
For the Crystal Violet assay, the medium was removed from the 96-well plates, the plates rinsed with PBS (Sigma, P3813) and then the cells were […] by the addition of 10% formalin (MERCK, 1.04003.2500) for 20 minutes at RT. Formalin was removed and 0.25% aqueous crystal violet (Sigma, HT901), dissolved in water, was added for 10 minutes at RT. Unbound Crystal Violet was rinsed by washing with water and finally 33% acetic acid was added to dissolve the dye.
(§4) The optical density of each plate was measured on a μQuant spectrophotometer and the data were analyzed with Gen5 software (μQuant Biomolecular Spectrophotometer MQX200 and Gen5™ Microplate Data Collection & Analysis software, BioTek® Instruments. Inc, April 2008). Absorbance was measured at 570 nm for all assays and a second wavelength was measured in order to subtract noise. For the Methyl-Tetrazolium assay this second wavelength was 630 nm and for the Sulforhodamine B and Crystal Violet assays it was 690 nm.

[2] = test system: T47D (human breast cancer); experiment: Methyl-Tetrazolium viability assay, T47D; type: cell-based; parameters: key: absorbance (optical density) at 570 nm, second wavelength subtracted
Source text: as §1
The Methyl-Tetrazolium dye assay measures the activity of enzymes in mitochondria. The dye precursor is taken up by cells, where it undergoes reduction to the purple formazan. It measures only the mitochondrial activity and, thus, it is not always a reliable indication of whether the cells themselves are alive or dead, since even a recently dead cell has […] enzyme activity in mitochondria. Intracellular glucose concentration, pH, and time before assay all affect the measurements.
as §2, §3
For the Methyl-Tetrazolium assay, the dye (Sigma, M2128; 5 mg/mL, diluted in phosphate-buffered saline) was added to each well and plates were incubated for 3 hours at 37° C. After the end of the incubation period, the medium was discarded and the cells were rinsed with phosphate-buffered saline. Finally, the formazan crystals were dissolved in dimethylsulphoxide (Sigma, D4540).
as §4

In the case of N.N.[Cl][Pt][Cl] [cisplatin], the ABSORBANCE ([1]; A375, 48 h) was 1.304, the ABSORBANCE ([1]; A375, 72 h) was 0.663 and the “Average absorbance, CVE 24 h” value ([1]; 0.1 μg/ml CDDP) was 0.607. The “Average absorbance, CVE 48 h” value ([1]; 0.1 μg/ml CDDP) was 1.304, the “Average absorbance, CVE 72 h” value ([1]; 0.1 μg/ml CDDP) was 0.663 and the “Average absorbance, CVE 24 h” value ([1]; 1 μg/ml CDDP) was 0.277. For the same molecule, the “Average absorbance, CVE 48 h” value ([1]; 1 μg/ml CDDP) was 0.396, the “Average absorbance, CVE 72 h” value ([1]; 1 μg/ml CDDP) was 0.178 and the “Average absorbance, CVE 24 h” value ([1]; 10 μg/ml CDDP) was 0.32. For the same molecule, the “Average absorbance, CVE 48 h” value ([1]; 10 μg/ml CDDP) was 0.405, the “Average absorbance, CVE 72 h” value ([1]; 10 μg/ml CDDP) was 0.282 and the “Average absorbance, CVE 24 h” value ([1]; 100 μg/ml CDDP) was 0.329. For the same molecule, the “Average absorbance, CVE 48 h” value ([1]; 100 μg/ml CDDP) was 0.288, the “Average absorbance, CVE 72 h” value ([1]; 100 μg/ml CDDP) was 0.311 and the “Average absorbance CVE” value ([1]; A375 Run 2, 24 h, 0.1 μg/ml CDDP) was 0.603. The “Average absorbance CVE” value ([1]; A375 Run 2, 24 h, 1 μg/ml CDDP) was 0.197, the “Average absorbance CVE” value ([1]; A375 Run 2, 24 h, 10 μg/ml CDDP) was 0.246 and the “Average absorbance CVE” value ([1]; A375 Run 2, 24 h, 100 μg/ml CDDP) was 0.241. For the same molecule, the “Average absorbance CVE” value ([1]; A375 Run 2, 48 h, 0.1 μg/ml CDDP) was 1.204, the “Average absorbance CVE” value ([1]; A375 Run 2, 48 h, 1 μg/ml CDDP) was 0.605 and the “Average absorbance CVE” value ([1]; A375 Run 2, 48 h, 10 μg/ml CDDP) was 0.514. For the same molecule, the “Average absorbance CVE” value ([1]; A375 Run 2, 48 h, 100 μg/ml CDDP) was 0.238, the “Average absorbance CVE” value ([1]; A375 Run 2, 72 h, 0.1 μg/ml CDDP) was 1.312 and the “Average absorbance CVE” value ([1]; A375 Run 2, 72 h, 1 μg/ml CDDP) was 1.001. The “Average absorbance CVE” value ([1]; A375 Run 2, 72 h, 10 μg/ml CDDP) was 0.729, the “Average absorbance CVE” value ([1]; A375 Run 2, 72 h, 100 μg/ml CDDP) was 0.293 and the “Average absorbance CVE” value ([1]; A375 Run 3, 24 h, 0.1 μg/ml CDDP) was 0.856. The “Average absorbance CVE” value ([1]; A375 Run 3, 24 h, 1 μg/ml CDDP) was 0.655, the “Average absorbance CVE” value ([1]; A375 Run 3, 24 h, 10 μg/ml CDDP) was 0.529 and the “Average absorbance CVE” value ([1]; A375 Run 3, 24 h, 100 μg/ml CDDP) was 0.224. The “Average absorbance CVE” value ([1]; A375 Run 3, 48 h, 0.1 μg/ml CDDP) was 0.92, the “Average absorbance CVE” value ([1]; A375 Run 3, 48 h, 1 μg/ml CDDP) was 0.375 and the “Average absorbance CVE” value ([1]; A375 Run 3, 48 h, 10 μg/ml CDDP) was 0.309. For the same molecule, the “Average absorbance CVE” value ([1]; A375 Run 3, 48 h, 100 μg/ml CDDP) was 0.252, the “Average absorbance CVE” value ([1]; A375 Run 3, 72 h, 0.1 μg/ml CDDP) was 0.961 and the “Average absorbance CVE” value ([1]; A375 Run 3, 72 h, 1 μg/ml CDDP) was 0.388. The “Average absorbance CVE” value ([1]; A375 Run 3, 72 h, 10 μg/ml CDDP) was 0.344, the “Average absorbance CVE” value ([1]; A375 Run 3, 72 h, 100 μg/ml CDDP) was 0.24 and the “MTT Average” value ([2]; T47D Run 1, 24 h, 0.1 μg/ml CDDP) was 0.166. The “MTT Average” value ([2]; T47D Run 1, 24 h, 1 μg/ml CDDP) was 0.033, the “MTT Average” value ([2]; T47D Run 1, 24 h, 10 μg/ml CDDP) was 0.046 and the “MTT Average” value ([2]; T47D Run 1, 24 h, 100 μg/ml CDDP) was 0.045. For the same molecule, the “MTT Average” value ([2]; T47D Run 1, 48 h, 1 μg/ml CDDP) was 0.039, the “MTT Average” value ([2]; T47D Run 1, 48 h, 10 μg/ml CDDP) was 0.044 and the “MTT Average” value ([2]; T47D Run 1, 48 h, 100 μg/ml CDDP) was 0.038. For the same molecule, the “MTT Average” value ([2]; T47D Run 1, 72 h, 0.1 μg/ml CDDP) was 0.336, the “MTT Average” value ([2]; T47D Run 1, 72 h, 1 μg/ml CDDP) was 0.04 and the “MTT Average” value ([2]; T47D Run 1, 72 h, 10 μg/ml CDDP) was 0.05. The “MTT Average” value ([2]; T47D Run 1, 72 h, 100 μg/ml CDDP) was 0.049, the “MTT Average” value ([2]; T47D Run 2, 24 h, 0.1 μg/ml CDDP) was 0.181 and the “MTT Average” value ([2]; T47D Run 2, 24 h, 1 μg/ml CDDP) was 0.051. The “MTT Average” value ([2]; T47D Run 2, 24 h, 10 μg/ml CDDP) was 0.07, the “MTT Average” value ([2]; T47D Run 2, 24 h, 100 μg/ml CDDP) was 0.051 and the “MTT Average” value ([2]; T47D Run 2, 48 h, 0.1 μg/ml CDDP) was 0.262. The “MTT Average” value ([2]; T47D Run 2, 48 h, 1 μg/ml CDDP) was 0.052, the “MTT Average” value ([2]; T47D Run 2, 48 h, 10 μg/ml CDDP) was 0.066 and the “MTT Average” value ([2]; T47D Run 2, 48 h, 100 μg/ml CDDP) was 0.054. The “MTT Average” value ([2]; T47D Run 2, 72 h, 0.1 μg/ml CDDP) was 0.397, the “MTT Average” value ([2]; T47D Run 2, 72 h, 1 μg/ml CDDP) was 0.046 and the “MTT Average” value ([2]; T47D Run 2, 72 h, 10 μg/ml CDDP) was 0.041. The “MTT Average” value ([2]; T47D Run 2, 72 h, 100 μg/ml CDDP) was 0.037, the “MTT Average” value ([2]; T47D Run 3, 24 h, 1 μg/ml CDDP) was 0.033 and the “MTT Average” value ([2]; T47D Run 3, 24 h, 10 μg/ml CDDP) was 0.074. The “MTT Average” value ([2]; T47D Run 3, 24 h, 100 μg/ml CDDP) was 0.047, the “MTT Average” value ([2]; T47D Run 3, 48 h, 0.1 μg/ml CDDP) was 0.261 and the “MTT Average” value ([2]; T47D Run 3, 48 h, 1 μg/ml CDDP) was 0.047. For the same molecule, the “MTT Average” value ([2]; T47D Run 3, 48 h, 10 μg/ml CDDP) was 0.077, the “MTT Average” value ([2]; T47D Run 3, 48 h, 100 μg/ml CDDP) was 0.051 and the “MTT Average” value ([2]; T47D Run 3, 72 h, 0.1 μg/ml CDDP) was 0.371. For the same molecule, the “MTT Average” value ([2]; T47D Run 3, 72 h, 1 μg/ml CDDP) was 0.035, the “MTT Average” value ([2]; T47D Run 3, 72 h, 10 μg/ml CDDP) was 0.057 and the “MTT Average” value ([2]; T47D Run 3, 72 h, 100 μg/ml CDDP) was 0.035.
